Assay results reported in publication PMC10199020 (Nature Communications, 2023).
Bridge positions count the residues as written; N and C are the ends. Square brackets hold non-standard residues; d marks the D form. Peptide text beside a SMILES is read from it. * marks the point of attachment. 5TAMRA = CN(C)c1ccc2c(c1)Oc1cc(N(C)C)ccc1C21OC(=O)c2cc(C(=O)*)ccc21; 2Nal = N[C@@H](Cc1ccc2ccccc2c1)C(=O)O; Pen = CC(C)(S)[C@H](N)C(=O)O; Aib = CC(C)(N)C(=O)O

Columns and labels:
NL-IL23R with IL12Rβ1 = molecular target: T1, NL-IL23R with IL12Rβ1 (Homo sapiens, UniProt P42701+Q5VWK5); experiment: P630-TMR NanoBRET binding assay, NL-IL23R with IL12Rβ1; details: for BRET ratio, Specific (Mean) / BRET ratio, Non-specific (Mean): Fig. 2d, NL-IL23R with IL12Rβ1; for BRET ratio, Non-specific (Mean): with 10 μM P630; for BRET ratio with non-specific binding subtracted (Mean): Figure 2 sheet Panel f; for BRET ratio with non-specific binding subtracted (Mean) / % maximum BRET ratio / % of P630-TMR specific Bmax (Mean): NL-IL23R + IL12RB1; for % maximum BRET ratio / % of P630-TMR specific Bmax (Mean): Figure 2 sheet Panel g, Fig. 3d; for Mean NanoBRET binding signal (Figure 7 panel b): NL-IL23R +IL12RB1
T1 construct: expressed in transfected cells; host or cells: HEK293T (ATCC CRL-3216), transient transfection
Text: (§1) A standard curve was used to predict the expression level of NanoLuc labelled receptor in each experiment (Supplementary Fig. 1).
(§2) Fig. 2 Creation and characterisation of a fluorescent cyclic peptide probe for IL23R. […] Data are normally mean ± SEM from five independent experiments. Details on absolute number of data points included for each concentration are provided in the associated Source Data file. In each individual saturation experiment triplicate determinations were normally made for total binding and duplicate measurements were made for non-specific binding.
(§3) Media was removed from white 96-well microplates containing transfected cells and replaced with fluoroprobe in the presence or absence of antagonist in 50 μL Hanks Balanced Salt Solution (HBSS) with 1 mg/mL BSA (Merck). After a 1-hour incubation at 37 °C without CO2, 5 μL of HBSS containing 77 μM furimizine was added to each well (final concentration 7 μM), the plate incubated for 5-minutes and the BRET signal measured using a PheraStar FS plate reader (BMG Labtech; data acquisition software version 5.41; MARS analysis software version 3.32) with a 450 ± 30 nm and >550 nm long pass filters.
(§4) Ligand binding data were fitted with the equation:2 BRETratio=Bmax[A]/([A]+KD)+(BA+C). Where ‘Bmax’ is the maximum specific binding BRET signal, ‘[A]’ is fluorescent probe concentration, ‘B’ is the non-specific binding component’s slope and ‘C’ is the Y intercept.
(§5) Specific binding data was generated by subtracting the BRET values gained in the presence of an excess of unlabelled probe from the BRET ratios gained in the absence of unlabelled probe. Specific binding data were fit using the equation:3 Y=Bmax[B]/(B+KD) where ‘Bmax’ is the maximum specific binding signal of the curve and ‘[B]’ is the concentration of fluorescent probe.

NL-IL12Rβ1 with IL23R = molecular target: T2, NL-IL12Rβ1 with IL23R (Homo sapiens, UniProt Q5VWK5); experiment: P630-TMR NanoBRET binding assay, NL-IL12Rβ1 with IL23R; details: Fig. 2e, NL-IL12Rβ1 and IL23R
T2 construct: untagged full-length IL23R could be measured in the membranes of living cells; expressed in transfected cells; host or cells: HEK293T, transient transfection
Text: as §1, §2, §3, §4, §5

T1 sequence (Q5VWK5 24-629, other chains not shown): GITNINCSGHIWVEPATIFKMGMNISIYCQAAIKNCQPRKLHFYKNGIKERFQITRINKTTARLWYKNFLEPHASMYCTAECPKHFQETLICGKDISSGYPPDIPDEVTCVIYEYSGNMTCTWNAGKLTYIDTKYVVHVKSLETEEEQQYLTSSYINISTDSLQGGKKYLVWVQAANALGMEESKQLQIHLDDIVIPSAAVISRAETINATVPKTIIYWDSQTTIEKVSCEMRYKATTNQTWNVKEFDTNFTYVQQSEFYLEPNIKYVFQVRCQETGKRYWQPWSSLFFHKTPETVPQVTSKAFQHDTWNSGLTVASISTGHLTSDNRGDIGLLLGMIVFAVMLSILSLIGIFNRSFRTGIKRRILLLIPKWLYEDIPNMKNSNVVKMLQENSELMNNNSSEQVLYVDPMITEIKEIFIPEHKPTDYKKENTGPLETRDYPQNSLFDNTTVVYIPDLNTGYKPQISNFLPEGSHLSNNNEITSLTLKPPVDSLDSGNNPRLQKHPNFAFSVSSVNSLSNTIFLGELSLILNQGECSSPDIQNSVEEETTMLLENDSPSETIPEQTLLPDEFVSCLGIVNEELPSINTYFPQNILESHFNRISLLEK
T2 sequence (Q5VWK5 24-629, other chains not shown): as above

BRET ratio, Specific (Mean) (NL-IL23R with IL12Rβ1; P630-TMR 0.457247 nM): 0.2512
BRET ratio, Specific (Mean) (NL-IL23R with IL12Rβ1; P630-TMR 1.37174 nM): 0.271
BRET ratio, Specific (Mean) (NL-IL23R with IL12Rβ1; P630-TMR 4.11523 nM): 0.315
BRET ratio, Specific (Mean) (NL-IL23R with IL12Rβ1; P630-TMR 12.3457 nM): 0.4472
BRET ratio, Specific (Mean) (NL-IL23R with IL12Rβ1; P630-TMR 37.037 nM): 0.6615
BRET ratio, Specific (Mean) (NL-IL23R with IL12Rβ1; P630-TMR 111.111 nM): 1.003
BRET ratio, Specific (Mean) (NL-IL23R with IL12Rβ1; P630-TMR 1000 nM): 1.323
BRET ratio, Specific (Mean) (NL-IL23R with IL12Rβ1; P630-TMR 3000 nM): 1.6368
BRET ratio, Non-specific (Mean) (NL-IL23R with IL12Rβ1; P630-TMR 0.457247 nM): 0.2426
BRET ratio, Non-specific (Mean) (NL-IL23R with IL12Rβ1; P630-TMR 1.37174 nM): 0.2389
BRET ratio, Non-specific (Mean) (NL-IL23R with IL12Rβ1; P630-TMR 4.11523 nM): 0.241
BRET ratio, Non-specific (Mean) (NL-IL23R with IL12Rβ1; P630-TMR 12.3457 nM): 0.2439
BRET ratio, Non-specific (Mean) (NL-IL23R with IL12Rβ1; P630-TMR 37.037 nM): 0.2477
BRET ratio, Non-specific (Mean) (NL-IL23R with IL12Rβ1; P630-TMR 111.111 nM): 0.2531
BRET ratio, Non-specific (Mean) (NL-IL23R with IL12Rβ1; P630-TMR 1000 nM): 0.3233
BRET ratio, Non-specific (Mean) (NL-IL23R with IL12Rβ1; P630-TMR 3000 nM): 0.4914
BRET ratio, Non-specific (Mean) (NL-IL23R with IL12Rβ1; P630-TMR […]): 0.2709
BRET ratio with non-specific binding subtracted (Mean) (NL-IL23R with IL12Rβ1; P630-TMR 0.457247 nM): 0.01279
BRET ratio with non-specific binding subtracted (Mean) (NL-IL23R with IL12Rβ1; P630-TMR 1.37174 nM): 0.03163
BRET ratio with non-specific binding subtracted (Mean) (NL-IL23R with IL12Rβ1; P630-TMR 4.11523 nM): 0.07414
BRET ratio with non-specific binding subtracted (Mean) (NL-IL23R with IL12Rβ1; P630-TMR 12.3457 nM): 0.203
BRET ratio with non-specific binding subtracted (Mean) (NL-IL23R with IL12Rβ1; P630-TMR 37.037 nM): 0.4147
BRET ratio with non-specific binding subtracted (Mean) (NL-IL23R with IL12Rβ1; P630-TMR 111.111 nM): 0.7498
BRET ratio with non-specific binding subtracted (Mean) (NL-IL23R with IL12Rβ1; P630-TMR 1000 nM): 1.0032
BRET ratio with non-specific binding subtracted (Mean) (NL-IL23R with IL12Rβ1; P630-TMR 3000 nM): 1.107
% maximum BRET ratio / % of P630-TMR specific Bmax (Mean) (NL-IL23R with IL12Rβ1; P630-TMR 0.457247 nM): 1.58%
% maximum BRET ratio / % of P630-TMR specific Bmax (Mean) (NL-IL23R with IL12Rβ1; P630-TMR 1.37174 nM): 3.558%
% maximum BRET ratio / % of P630-TMR specific Bmax (Mean) (NL-IL23R with IL12Rβ1; P630-TMR 4.11523 nM): 8.249%
% maximum BRET ratio / % of P630-TMR specific Bmax (Mean) (NL-IL23R with IL12Rβ1; P630-TMR 12.3457 nM): 22.4565%
% maximum BRET ratio / % of P630-TMR specific Bmax (Mean) (NL-IL23R with IL12Rβ1; P630-TMR 37.037 nM): 45.1459%
% maximum BRET ratio / % of P630-TMR specific Bmax (Mean) (NL-IL23R with IL12Rβ1; P630-TMR 111.111 nM): 80.9844%
% maximum BRET ratio / % of P630-TMR specific Bmax (Mean) (NL-IL23R with IL12Rβ1; P630-TMR 1000 nM): 106.516%
% maximum BRET ratio / % of P630-TMR specific Bmax (Mean) (NL-IL23R with IL12Rβ1; P630-TMR 3000 nM): 100.024%
Mean NanoBRET binding signal (Figure 7 panel b) (NL-IL23R with IL12Rβ1; [P630-TMR] 0.8 nM): -0.0001896
Mean NanoBRET binding signal (Figure 7 panel b) (NL-IL23R with IL12Rβ1; [P630-TMR] 4 nM): 0.1611
Mean NanoBRET binding signal (Figure 7 panel b) (NL-IL23R with IL12Rβ1; [P630-TMR] 20 nM): 0.6859
Mean NanoBRET binding signal (Figure 7 panel b) (NL-IL23R with IL12Rβ1; [P630-TMR] 100 nM): 1.691
Mean NanoBRET binding signal (Figure 7 panel b) (NL-IL23R with IL12Rβ1; [P630-TMR] 500 nM): 2.556
Mean NanoBRET binding signal (Figure 7 panel b) (NL-IL23R with IL12Rβ1; [P630-TMR] 2000 nM): 2.7354
Kd (NL-IL23R with IL12Rβ1; NL-IL23R and IL12Rβ1, mean ± SEM): 0.0511 ± 0.0073 µM
BRET ratio, Specific (Mean) (NL-IL12Rβ1 with IL23R; P630-TMR 0.457247 nM): 0.2494
BRET ratio, Specific (Mean) (NL-IL12Rβ1 with IL23R; P630-TMR 1.37174 nM): 0.2506
BRET ratio, Specific (Mean) (NL-IL12Rβ1 with IL23R; P630-TMR 4.11523 nM): 0.2544
BRET ratio, Specific (Mean) (NL-IL12Rβ1 with IL23R; P630-TMR 12.3457 nM): 0.2565
BRET ratio, Specific (Mean) (NL-IL12Rβ1 with IL23R; P630-TMR 37.037 nM): 0.2604
BRET ratio, Specific (Mean) (NL-IL12Rβ1 with IL23R; P630-TMR 111.111 nM): 0.269
BRET ratio, Specific (Mean) (NL-IL12Rβ1 with IL23R; P630-TMR 1000 nM): 0.2823
BRET ratio, Specific (Mean) (NL-IL12Rβ1 with IL23R; P630-TMR 3000 nM): 0.2959
Structure (SMILES): COc1ccc(C[C@H](NC(=O)[C@H]2NC(=O)[C@H](CCC(N)=O)NC(=O)[C@H](Cc3c[nH]c4ccccc34)NC(=O)[C@H]([C@@H](C)O)NC(=O)[C@H](CC(N)=O)NC(=O)[C@@H](NC(C)=O)C(C)(C)SSC2(C)C)C(=O)N[C@@H](Cc2ccc3ccccc3c2)C(=O)NC(C)(C)C(=O)N[C@@H](CCC(=O)O)C(=O)N[C@@H](CC(N)=O)C(=O)N[C@@H](CC(N)=O)C(=O)N[C@@H](CCCCNC(=O)c2ccc3c(c2)C(=O)OC32c3ccc(N(C)C)cc3Oc3cc(N(C)C)ccc32)C(N)=O)cc1 [P630-TMR] (Ac-[Pen]NTWQ[Pen]Y(Me)[2Nal][Aib]ENNK(5TAMRA)-NH2; disulfide 1-6)
